From US5192799A, “Coumaran group containing amine compounds and their acid addition salts and quaternary ammonium salts and the use thereof as anti arrhythmic agents and as psychotropic agents” (Mitsui Petrochemical Industries, Ltd., priority 1987, dated 1993)

Experiments:
in vivo = conditions: mouse, in vivo, po
Experimental: (§1) By using male ddY-strain 5-week old mice (3 to 4 per group), the compounds of general formula (1) were each administered orally or intraperitoneally as a solution in saline or as a suspension in methyl cellulose, and 24 hours after the administration, the toxicity of the compounds was evaluated.

serotonine 2 receptor = molecular target: T1, serotonine 2 receptor (Rattus norvegicus, UniProt P14842); assay: [3H]ketanserin binding assay (affinity for serotonine 2 receptor); parameters: species or system Wistar male rat; conditions: rat frontal cortex, 1 nM [3H] ketanserin, 37° C., 10 minutes
T1 construct: frontal cortex fraction prepared from the brain of a Wistar male rat; from tissue; host or cells: rat brain frontal cortex (Wistar, male), membrane fraction
Experimental: (§2) Striatal membranes fractions were prepared from a rat brain, and the affinity of the compounds of this invention on dopamine 2 receptors was determined by using [^3 H] spiperone assay from membranes fractions as an index. Moreover, frontal cortex membranes were prepared from a rat brain, and the affinity of the test drugs on serotonine 2 receptor was determined by using [^3 H] ketenserin binding assay. It was shown that the compounds of general formula (1) of the invention have marked anti-dopamine activity and anti-serotonine activity.
[^3 H] ketanserin binding assay
The affinity of the compound of the invention was determined on the basis of the ability to substitute [^3 H] ketanserin from a frontal cortex fraction prepared from the brain of a Wistar male rat.
(§3) The rat was decapitated, and the brain was obtained. The frontal cortex was homogenized in 40 volumes of 50 mM Tris-HCl buffer (pH 7.6), and then centrifuged. The pellets were again homogenized in 100 volumes of the same buffer, and used in a binding test. The binding test was conducted by the following procedure.
(§4) The frontal cortex (original tissue weight 1 mg/ml), 100 microliters of a test drug and 1 nM of [^3 H] ketanserin were incubated at 37° C. for 10 minutes in 50 mM Tris-HCl buffer (pH 7.6). Then, the reaction mixture was suction-filtered through a glass fiber filter (Watmann GF/B) and washed with a buffer three times.
(§5) The filter was put in a scintillation cocktail (ACSII, Amersham Co.), and after mixing, left to stand overnight. The radioactivity held on the filter was measured by a liquid scintillation counter. The nonspecific binding was measured in the presence of 1 μM of methysergide. The concentration of the test drug which inhibited 50% of a specific binding was determined from the graph and defined as IC5. Ki was calculated from the following equation. [formula]

[1] = system: Quipazine-induced head twitching of mice; assay: Quipazine-induced head twitching (anti-5-HT activity); assay type: in vivo, ddY-strain male mice; conditions: for Percent inhibition of quipazine-induced head twitching / Quipazine-induced head twitching: 1 mg/kg i.p.; for Quipazine-induced head twitching: control 6.7 ± 0.8, **p < 0.05, ***p < 0.001
Text: (§6) The effects of the compounds of general formula (1) on the apomorphine-induced climbing behavior of mice (i.e. anti-dopamine activity) and the effects of the test drugs of the invention on the quipazine-induced head twitching of mice (i.e. anti-serotonine activity) were also examined. It was made clear that the compounds of this invention represented by general formula (1) have marked anti-dopamine activity and anti-serotonine activity both in vivo and in vitro, and have potentiality as an anti-psychotic agent, an anti-depressant, an antianxiety agent, a sedative or as an anti-dementia agent.
(§7) By using 5 week old ddY-strain male mice (10 per group), the anti-dopamine (anti-DA hereinafter) and anti-serotonine (anti-5-HT hereinafter) activities were examined by the following procedures. All does of test drugs were adjusted to 1 mg/ml. They were each suspended in 0.5% carboxymethyl cellulose (CMC)/saline so that their volume administered was 0.1 ml/10 g. The suspension was administered intraperitoneally.
2. Effect of quipazine on the head twitch (anti-5-HT activity):
Quipazine (3 mg/kg) was administered intraperitoneally 30 minutes after the intraperitoneal administration of each test drug. After the lapse of 10 minutes, 20 minutes and 30 minutes from then, the number of head twitchings of each mouse which occurred for 2 minutes was counted.

dopamine 2 receptor = molecular target: T2, dopamine 2 receptor (Rattus norvegicus, UniProt P61169); assay: [3H]spiperone binding assay (affinity for dopamine 2 receptor); parameters: species or system Wistar-strain male rat; conditions: rat striatal membranes, 0.5 nM [3H] spiperone, 37° C., 10 minutes
T2 construct: membrane fractions prepared from the brain a Wistarstrain male rat; from tissue; host or cells: rat brain striatum (Wistar, male), membrane fraction
Experimental: as §2
[^3 H]spiperone binding assay
The affinity of the compounds of this invention to the dopamine 2 receptor was determined on the basis of the ability to substitute [^3 H] spiperone from stratal membrane fractions prepared from the brain a Wistarstrain male rat.
as §3, with “striatum” for “frontal cortex”, “50” for “100”
as §4, with “The stria” for “The frontal cortex”, “weight 20” for “weight 1”, “and 0.5” for “and 1”, “H] spiperone” for “H] ketanserin”
as §5, with “(+) butaclamol.” for “methysergide.”, “IC50.” for “IC5.”

[2] = system: Apomorphine-induced climbing of mice; assay: Apomorphine-induced climbing (anti-DA activity); assay type: in vivo, ddY-strain male mice
Text: as §6, §7
1. Effect of apomorphine on the climbing behavior (anti-DA activity):
Apomorphine (3 mg/kg) was subcutaneously administered 30 minutes after the intraperitoneal administration of each test drug, and 20 minutes later, the climbing time of each mouse was measured.

Purkinje fiber = assay: Effect on APD (APD75, field-stimulated right ventricular free wall); assay type: cell-based, adult mongrel dog; conditions: Canis lupus familiaris, purkinje, 20 min, 20 minutes incubation, 37° C., 1 Hz, control before drug = 100%, read-out: APD75 % (percent change in APD75); for activation at 1 µg/mL: dose 1 μg/ml; for activation at 3 µg/mL: dose 3 μg/ml; for activation at 10 µg/mL: dose 10 μg/ml
Method in brief: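 Right ventricular free wall from pentobarbital-anaesthetized adult mongrel dog, held in Tyrode's solution at 37° C. with 1 Hz field stimulation. Purkinje fiber action potentials recorded by intracellular glass microelectrodes; APD75 measured after 20 minutes drug perfusion, expressed as percent change versus pre-drug control (100%).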

atrial fibrillation = assay: Atrial fibrillation model; assay type: in vivo, mongrel dog; conditions: dose of 0.3 to 3 mg/kg or 1 to 10 mg/kg
Text: Furthermore, the anaethetized dog was cut open at the chest. Bipolar electrodes were sutured to the right atrial surface, and stimulation electrodes were attached to the vagus nerves at both sides of the cervical region. Atrial fibrillation was induced by the method of Goldberger et al. A. L. Goldberger et al.: […] Further, the anaethetized dog was cut open at the chest. Left anterior descending coronary artery was ligated, and ninety minutes later, reperfused to prepare a myocardial infarction which was liable to develop tachycardia. At that time, a bipolar plunge electrode was placed in the interventricular septum near the ligated site. Several days after the operation, programmed electrical stimulation was applied to induce tachycardia. The effect of the drug to cause disappear of tachycardia was examined. In an anaethetized and open-chested mongrel dog, bipolar electrodes (silver and silver-silver chloride electrodes) were sutured respectively to the right atrium for stimulation and recording. The vagus nerves on both sides of the cervical region were isolated and cut, and stimulation electrodes were attached to the peripheral end. The atrial fibrillation was induced in accordance with the method of Goldberger et al. After cardiac arrest induced by stimulating the vagus nerves, electrical stimulation was applied to the right atria at a high frequency.

[3] = system: right ventricle (effective refractory period); assay: Activity on ERP of the right ventricle; assay type: in vivo, adult mongrel dog; conditions: Canis lupus familiaris, iv, ERP before drug = 100%, read-out: ERP % (ERP prolonging activity); for change in vivo at 0.1 mg/kg: 0.1 mg/kg i.v.; for change in vivo at 0.3 mg/kg: 0.3 mg/kg i.v.; for change in vivo at 1 mg/kg: 1 mg/kg i.v.; for change in vivo at 3 mg/kg: 3 mg/kg i.v.
Method in brief: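 Anaesthetized open-chest mongrel dogs, right ventricle paced at 400 msec interval (4 msec, twice diastolic threshold) after alcohol ablation of sinus pacemaker. ERP defined by loss of response to first stimulus of a 10-stimulus train; drug given intravenously or intraduodenally, ERP expressed as % of pre-dose.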

mice = assay: in vivo; conditions: p.o., 24 hours after administration, male ddY mice; 1440 min
Experimental: as §1

[4] = LD50 p.o., p.o., 24 hours after administration, male ddY mice

T1 sequence (P14842 whole entry): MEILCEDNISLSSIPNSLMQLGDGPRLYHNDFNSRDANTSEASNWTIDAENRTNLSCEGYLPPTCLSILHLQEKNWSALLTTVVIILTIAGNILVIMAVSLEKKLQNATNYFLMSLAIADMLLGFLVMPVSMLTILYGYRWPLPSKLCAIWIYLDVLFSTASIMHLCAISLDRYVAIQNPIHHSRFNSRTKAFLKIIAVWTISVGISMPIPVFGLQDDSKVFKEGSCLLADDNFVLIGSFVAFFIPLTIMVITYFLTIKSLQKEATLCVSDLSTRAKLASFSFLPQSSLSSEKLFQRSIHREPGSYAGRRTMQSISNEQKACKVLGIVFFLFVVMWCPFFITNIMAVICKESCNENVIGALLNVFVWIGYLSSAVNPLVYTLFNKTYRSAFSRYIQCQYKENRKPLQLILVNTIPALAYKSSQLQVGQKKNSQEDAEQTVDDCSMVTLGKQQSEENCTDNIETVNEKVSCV
T2 sequence (P61169 whole entry): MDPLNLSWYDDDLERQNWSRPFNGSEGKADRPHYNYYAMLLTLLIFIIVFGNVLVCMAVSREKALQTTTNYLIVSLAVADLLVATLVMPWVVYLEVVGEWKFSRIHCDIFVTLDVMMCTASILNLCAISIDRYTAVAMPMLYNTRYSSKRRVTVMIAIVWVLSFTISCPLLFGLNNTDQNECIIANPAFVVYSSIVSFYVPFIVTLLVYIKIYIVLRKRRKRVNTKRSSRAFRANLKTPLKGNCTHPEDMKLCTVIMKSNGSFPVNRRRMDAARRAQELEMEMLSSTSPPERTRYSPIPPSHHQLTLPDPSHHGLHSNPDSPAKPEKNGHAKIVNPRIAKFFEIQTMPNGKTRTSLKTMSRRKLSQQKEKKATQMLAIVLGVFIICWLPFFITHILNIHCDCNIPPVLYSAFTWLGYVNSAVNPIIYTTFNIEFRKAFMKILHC

Row | Structure (SMILES) | LD50 at 24 h (in vivo) [mg/kg] | Ki (serotonine 2 receptor) [nM] | Percent inhibition of quipazine-induced head twitching [1] [%] | Quipazine-induced head twitching [1] [number/2 min.] | effect on quipazine-induced head twitching / anti-serotonine activity (in words) ([1]; in vivo, mice) | Ki (dopamine 2 receptor) [nM] | Percent inhibition of apomorphine-induced climbing ([2]; 1 mg/kg i.p.) [%] | Apomorphine-induced climbing (mean ± S.E.) ([2]; 1 mg/kg i.p., control 72.9 ± 8.5, **p < 0.01) [sec/2 min.] | effect on apomorphine-induced climbing behavior / anti-dopamine activity (in words) ([2]; in vivo, mice) | LD50 at 24 h (in vivo; [4]) [mg/kg] | activation at 1 µg/mL (Purkinje fiber) [%] | activation at 3 µg/mL (Purkinje fiber) [%] | activation at 10 µg/mL (Purkinje fiber) [%] | disappearance of atrial fibrillation (atrial fibrillation) | change in vivo at 0.1 mg/kg [3] [%] | change in vivo at 0.3 mg/kg [3] [%] | change in vivo at 1 mg/kg [3] [%] | change in vivo at 3 mg/kg [3] [%] | LD50 p.o. (mice)
1 | O=C1COc2cc(OCCCN3CCC(C(=O)c4ccc(F)cc4)CC3)ccc21 [Compound 1236] | < 300 | 9.1 | 99 | 0.1 ± 0.1 | significantly inhibited the apomorphine-induced climbing behavior and quipazine-induced head twitching | 122 | 56 | 32.0 ± 8.6 | significantly inhibited the apomorphine-induced climbing behavior | – | – | – | – | – | – | – | – | – | –
2 | O=C1COc2cc(OCCCN3CCN(c4ccccc4)CC3)ccc21 [Compound 1256] | – | 175 | 43 | 3.8 ± 0.9 | – | 286 | – | – | – | – | – | – | – | – | – | – | – | – | –
3 | CC1CCCN(CCCOc2ccc3c(c2)OCC3=O)C1 (centres unmarked) [Compound 1118] | – | – | – | – | – | – | – | – | – | > 300 | 10 | 13 | 24 | could cause disappearance fibrillation | 5 | 9 | 22 | 26 | –
4 | O=C1COc2cc(OCCCN3CCC(c4ccccc4)CC3)ccc21 [Compound 1139] | – | – | – | – | – | – | – | – | – | – | 33 | 55 | 65 | could cause disappearance fibrillation | – | 5 | 11 | – | > 1,000 mg/kg
5 | O=C1COc2cc(OCCCN3CCC(c4ccccc4)CC3)ccc21 [Compound 1140] | – | – | – | – | – | – | – | – | – | – | – | – | – | – | – | – | – | – | > 300 mg/kg
6 | O=C1COc2cc(OCCCN3CCC(Cc4ccccc4)CC3)ccc21 [Compound 1146] | – | 441 | – | – | – | > 400 | – | – | – | > 300 | 18 | 25 | 34 | could cause disappearance fibrillation | 4 | 16 | 20 | – | –
7 | CC1CCCC(C)N1CCCOc1ccc2c(c1)OCC2=O (centres unmarked) [Compound 1126] | – | – | – | – | – | – | – | – | – | > 300 | – | 19 | 27 | could cause disappearance fibrillation | – | 8 | 12 | 15 | –
